From publication PMC7469376 (ACS Omega, 2020)

How the values were obtained:
SphK1 [1] = molecular target: T1, SphK1 (Homo sapiens, UniProt Q9NYA1); test: Malachite green-based ATPase enzyme inhibition assay; format: biochemical
A549 cells = test: MTT cell viability assay, A549; format: cell-based; conditions: Homo sapiens, A549, 48 h, read-out: IC50, cell viability (MTT)
[2] = tested on: caspase-3 activity in H1299 cells; test: Caspase-3 colorimetric assay, H1299; format: cell-based, human; conditions: 50 and 100 μM, 24 h, compared to untreated cells
SphK1 [3] = molecular target: T1, SphK1; test: Isothermal titration calorimetry of harmaline with SphK1; format: binding
HEK293 = conditions: read-out: IC50 against HEK293; after 72 h of treatment; ref Storch et al. 94; cited from earlier work
[4] = tested on: caspase-3 activity in A549 cells; test: Caspase-3 colorimetric assay, A549; format: cell-based, human; conditions: 50 and 100 μM, 24 h, compared to untreated cells
H1299 cells = test: MTT cell viability assay, H1299; format: cell-based; conditions: Homo sapiens, NCI-H1299, 48 h, read-out: IC50, cell viability (MTT)

T1 sequence (Q9NYA1 whole entry): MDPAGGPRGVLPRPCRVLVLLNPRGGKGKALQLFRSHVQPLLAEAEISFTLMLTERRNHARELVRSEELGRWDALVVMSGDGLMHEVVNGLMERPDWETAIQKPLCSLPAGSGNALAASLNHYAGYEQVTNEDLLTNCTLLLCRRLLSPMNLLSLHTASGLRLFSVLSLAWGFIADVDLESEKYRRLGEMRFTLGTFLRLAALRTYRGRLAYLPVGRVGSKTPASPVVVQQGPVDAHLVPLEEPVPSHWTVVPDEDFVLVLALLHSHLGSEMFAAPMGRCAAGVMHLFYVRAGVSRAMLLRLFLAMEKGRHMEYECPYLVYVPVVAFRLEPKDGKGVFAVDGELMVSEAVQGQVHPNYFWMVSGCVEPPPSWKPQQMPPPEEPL

COc1ccc2c3c([nH]c2c1)C(C)=NCC3 [harmaline]
IC50 (SphK1 [1]; IC50, SphK1 ATPase activity, harmaline 0 to 30 μM, three independent experiments): 6.13 µM | hill slope of SphK1 inhibition curve (SphK1 [1]; three-parameter Hill fit): 0.57 | IC50 (A549 cells): 67.9 ± 2.91 µM | caspase-3 activity (free pNA liberated per hour) [2]: gradual increase in the caspase-3 activity | association constant Ka1 (SphK1 [3]; ITC, site 1): Ka1 = 1.89 × 10^4 ± 1.3 × 10^3 M^–1 | enthalpy change ΔH1 (SphK1 [3]; ITC, site 1): ΔH1 = −3205 ± 197 cal/mol | ΔG1 (free energy change) (SphK1 [3]; ITC, site 1): ΔG1 = −5.83 kcal/mol | ΔS1 (SphK1 [3]; ITC, site 1): ΔS1 = 8.82 cal/mol/deg | association constant Ka2 (SphK1 [3]; ITC, site 2): Ka2 = 1.49 × 10^5 ± 8.6 × 10^3 M^–1 | enthalpy change ΔH2 (SphK1 [3]; ITC, site 2): ΔH2 = 1895 ± 257 cal/mol | ΔG2 (free energy change) (SphK1 [3]; ITC, site 2): ΔG2 = −7.04 kcal/mol | ΔS2 (SphK1 [3]; ITC, site 2): ΔS2 = 30.0 cal/mol/deg | association constant Ka3 (SphK1 [3]; ITC, site 3): Ka3 = 3.50 × 10^4 ± 2.0 × 10^3 M^–1 | enthalpy change ΔH3 (SphK1 [3]; ITC, site 3): ΔH3 = 272.3 ± 190 cal/mol | ΔG3 (free energy change) (SphK1 [3]; ITC, site 3): ΔG3 = −5.99 kcal/mol | ΔS3 (SphK1 [3]; ITC, site 3): ΔS3 = 21.7 cal/mol/deg | association constant Ka4 (SphK1 [3]; ITC, site 4): Ka4 = 4.58 × 10^3 ± 2.9 × 10^2 M^–1 | enthalpy change ΔH4 (SphK1 [3]; ITC, site 4): ΔH4 = −9574 ± 467 cal/mol | ΔG4 (free energy change) (SphK1 [3]; ITC, site 4): ΔG4 = −4.98 kcal/mol | ΔS4 (SphK1 [3]; ITC, site 4): ΔS4 = −15.4 cal/mol/deg | Kd (SphK1 [3]; dissociation constant KD1, ITC, site 1): 52.9 µM | Kd (SphK1 [3]; dissociation constant KD2, ITC, site 2): 6.7 µM | Kd (SphK1 [3]; dissociation constant KD3, ITC, site 3): 28.6 µM | Kd (SphK1 [3]; dissociation constant KD4, ITC, site 4): 218 µM | IC50 (HEK293): > 200 µM | caspase-3 activity (free pNA liberated per hour) [4]: gradual increase in the caspase-3 activity | IC50 (H1299 cells): 48.2 ± 1.76 µM
